In ChEMBL document CHEMBL1681651, “A broad spectrum anticancer nucleoside with selective toxicity against human colon cells in vitro” (2011):

How the values were obtained:
Assay type in all cases: functional
COLO 205 [1] = assay: Growth inhibition of human COLO205 cells assessed as cell growth at 1 mM after 48 hrs by SRB assay; settings: COLO 205, 48 h, read-out: Activity
M14 = assay: Growth inhibition of human M14 cells assessed as cell growth at 1 mM after 48 hrs by SRB assay; settings: M14, 48 h, read-out: Activity
SN12C = assay: Growth inhibition of human SN12C cells assessed as cell growth at 0.1 uM after 48 hrs by SRB assay; settings: read-out: Activity
OVCAR-4 = assay: Growth inhibition of human OVCAR4 cells assessed as cell growth at 1 uM after 48 hrs by SRB assay; settings: OVCAR-4, 48 h, read-out: Activity
BT-549 = assay: Growth inhibition of human BT549 cells assessed as cell growth at 1 mM after 48 hrs by SRB assay; settings: BT-549, 48 h, read-out: Activity
HOP-92 = assay: Growth inhibition of human HOP92 cells assessed as cell growth at 1 mM after 48 hrs by SRB assay; settings: HOP-92, 48 h, read-out: Activity
T47D = assay: Growth inhibition of human T47D cells assessed as cell growth at 1 uM after 48 hrs by SRB assay; settings: read-out: Activity
[2] = Growth inhibition of human […] cells assessed as cell growth at 10 uM after 48 hrs by SRB assay; settings: read-out: Activity
A549 = assay: Growth inhibition of human A549 cells assessed as cell growth at 0.1 uM after 48 hrs by SRB assay; settings: A549, 48 h, read-out: Activity
EKVX [3] = assay: Growth inhibition of human EKVX cells assessed as cell growth at 100 uM after 48 hrs by SRB assay; settings: read-out: Activity
COLO 205 [4] = assay: Growth inhibition of human COLO205 cells after 48 hrs by […] growth inhibition assay; settings: COLO 205, 48 h
HOP-62 = assay: Growth inhibition of human HOP62 cells assessed as cell growth at 10 uM after 48 hrs by SRB assay; settings: HOP-62, 48 h, read-out: Activity
SNB-75 = assay: Growth inhibition of human SNB75 cells assessed as cell growth at 1 uM after 48 hrs by SRB assay; settings: SNB-75, 48 h, read-out: Activity
PC-3 = assay: Growth inhibition of human PC3 cells after 48 hrs by […] growth inhibition assay; settings: PC-3, 48 h, read-out: LC50 (the source's name)
SF-295 [5] = assay: Growth inhibition of human SF295 cells assessed as cell growth at 1 mM after 48 hrs by SRB assay; settings: SF-295, 48 h, read-out: Activity
NCI/ADR-RES = assay: Growth inhibition of human NCI/ADR-RES cells assessed as cell growth at 10 uM after 48 hrs by SRB assay; settings: read-out: Activity
RXF 393 = assay: Growth inhibition of human RXF393 cells assessed as cell growth at 1 mM after 48 hrs by SRB assay; settings: RXF 393, 48 h, read-out: Activity
U-251 [6] = assay: Growth inhibition of human U251 cells assessed as cell growth at 1 uM after 48 hrs by SRB assay; settings: U-251, 48 h, read-out: Activity
HCT-116 = assay: Growth inhibition of human HCT116 cells assessed as cell growth at 100 uM after 48 hrs by SRB assay; settings: HCT-116, 48 h, read-out: Activity
DU-145 [7] = assay: Growth inhibition of human DU145 cells assessed as cell growth at 1 uM after 48 hrs by SRB assay; settings: DU-145, 48 h, read-out: Activity
OVCAR-5 [8] = assay: Growth inhibition of human OVCAR5 cells assessed as cell growth at 10 uM after 48 hrs by SRB assay; settings: OVCAR-5, 48 h, read-out: Activity
LOX IMVI = assay: Growth inhibition of human LOXIMVI cells assessed as cell growth at 1 uM after 48 hrs by SRB assay; settings: read-out: Activity
A498 [9] = assay: Growth inhibition of human A498 cells assessed as cell growth at 1 uM after 48 hrs by SRB assay; settings: A498, 48 h, read-out: Activity
U-251 [10] = assay: Growth inhibition of human U251 cells assessed as cell growth at 10 uM after 48 hrs by SRB assay; settings: U-251, 48 h, read-out: Activity
OVCAR-8 = assay: Growth inhibition of human OVCAR8 cells assessed as cell growth at 10 uM after 48 hrs by SRB assay; settings: OVCAR-8, 48 h, read-out: Activity
KM12 = assay: Growth inhibition of human KM12 cells assessed as cell growth at 100 uM after 48 hrs by SRB assay; settings: KM12, 48 h, read-out: Activity
OVCAR-5 [11] = assay: Growth inhibition of human OVCAR5 cells assessed as cell growth at 1 uM after 48 hrs by SRB assay; settings: OVCAR-5, 48 h, read-out: Activity
UO-31 [12] = assay: Growth inhibition of human UO31 cells assessed as cell growth at 1 uM after 48 hrs by SRB assay; settings: UO-31, 48 h, read-out: Activity
SF-295 [13] = assay: Growth inhibition of human SF295 cells assessed as cell growth at 10 uM after 48 hrs by SRB assay; settings: SF-295, 48 h, read-out: Activity
DU-145 [14] = assay: Growth inhibition of human DU145 cells assessed as cell growth at 10 uM after 48 hrs by SRB assay; settings: DU-145, 48 h, read-out: Activity
UO-31 [15] = assay: Growth inhibition of human UO31 cells assessed as cell growth at 0.1 uM after 48 hrs by SRB assay; settings: UO-31, 48 h, read-out: Activity
MDA-MB-231 = assay: Growth inhibition of human MDA-MB-231 cells assessed as cell growth at 10 uM after 48 hrs by SRB assay; settings: MDA-MB-231, 48 h, read-out: Activity
A498 [16] = assay: Growth inhibition of human A498 cells assessed as cell growth at 10 uM after 48 hrs by SRB assay; settings: A498, 48 h, read-out: Activity
HCT-15 = assay: Growth inhibition of human HCT15 cells assessed as cell growth at 1 uM after 48 hrs by SRB assay; settings: HCT-15, 48 h, read-out: Activity
EKVX [17] = assay: Growth inhibition of human EKVX cells after 48 hrs by […] growth inhibition assay
SNB-19 = assay: Growth inhibition of human SNB19 cells assessed as cell growth at 1 mM after 48 hrs by SRB assay; settings: SNB-19, 48 h, read-out: Activity
TK-10 = assay: Growth inhibition of human TK10 cells assessed as cell growth at 10 uM after 48 hrs by SRB assay; settings: TK-10, 48 h, read-out: Activity
[18] = read-out: LC50 (the source's name)
[19] = read-out: pLC50 (the source's name) (converted)

## CNC(=O)NC[C@H]1O[C@@H](n2cnc3c(NC(=O)Nc4ccccc4)ncnc32)[C@H](O[Si](C)(C)C(C)(C)C)[C@@H]1CC(=O)N(C)OC
COLO 205 [1]
  growth at 1000 µM: 1%
M14
  growth at 1000 µM: 18%
SN12C
  growth at 0.1 µM: 106%
OVCAR-4
  growth at 1 µM: 100%
BT-549
  growth at 1000 µM: 26%
HOP-92
  growth at 1000 µM: -43%
T47D
  growth at 1 µM: 89%
[2]
  growth at 10 µM: 69%
A549
  growth at 0.1 µM: 97%
EKVX [3]
  growth at 100 µM: 60%
COLO 205 [4]; read-out: GI50
  GI50: 12.3 µM
COLO 205 [4]; [18]
  CC50: > 100 µM
COLO 205 [4]; read-out: TGI
  TGI: > 100 µM
COLO 205 [4]; read-out: pGI50 (converted)
  GI50: 12.3 µM
COLO 205 [4]; [19]
  CC50: > 100 µM
COLO 205 [4]; read-out: pTGI (converted)
  TGI: > 100 µM
HOP-62
  growth at 10 µM: 86%
SNB-75
  growth at 1 µM: 95%
PC-3
  CC50: > 100 µM
SF-295 [5]
  growth at 1000 µM: 20%
NCI/ADR-RES
  growth at 10 µM: 105%
RXF 393
  growth at 1000 µM: -36%
U-251 [6]
  growth at 1 µM: 101%
HCT-116
  growth at 100 µM: 26%
DU-145 [7]
  growth at 1 µM: 112%
OVCAR-5 [8]
  growth at 10 µM: 92%
LOX IMVI
  growth at 1 µM: 96%
A498 [9]
  growth at 1 µM: 96%
U-251 [10]
  growth at 10 µM: 90%
OVCAR-8
  growth at 10 µM: 103%
KM12
  growth at 100 µM: 62%
OVCAR-5 [11]
  growth at 1 µM: 98%
UO-31 [12]
  growth at 1 µM: 89%
SF-295 [13]
  growth at 10 µM: 98%
DU-145 [14]
  growth at 10 µM: 104%
UO-31 [15]
  growth at 0.1 µM: 89%
MDA-MB-231
  growth at 10 µM: 94%
A498 [16]
  growth at 10 µM: 87%
HCT-15
  growth at 1 µM: 94%
EKVX [17]; read-out: GI50
  GI50: 26.4 µM
EKVX [17]; [18]
  CC50: > 100 µM
EKVX [17]; read-out: TGI
  TGI: > 100 µM
EKVX [17]; read-out: pGI50 (converted)
  GI50: 26.3 µM
EKVX [17]; [19]
  CC50: > 100 µM
EKVX [17]; read-out: pTGI (converted)
  TGI: > 100 µM
SNB-19
  growth at 1000 µM: 51%
TK-10
  growth at 10 µM: 104%
